{
  "source": "patent EP1288226A1",
  "about": "“Modification of the expression levels of Toll-like receptor familiy members for influencing neurodegeneration and neuroprotection in the human central nervous system” (NEDERLANDSE ORGANISATIE VOOR …, priority 2001, dated 2003)",
  "assay_in_all_cases": "TLR expression in primary human microglia after stimulation, semi-quantitative RT-PCR",
  "type_in_all_cases": "cell-based",
  "conditions_in_all_cases": "aggregated peptide 5 µM, 6 h or 24 h",
  "key": {"TLR2": {"tested_on": "TLR2", "procedure": "(§1) Primary human microglia, oligodendrocytes and astrocytes used in this study were isolated from the human white matter samples obtained from the patients listed in Table 1, as previously described (Bajramovic et al., 2000a and 2000b; De Groot et al., 2000). Briefly, brain tissues dissected from corpus callosum or subcortical white matter were collected and blood vessels were removed. After a 20-min digestion in 0.25 % (w/v) trypsine (Sigma, St. Louis, MO) and 0.1 mg/ml DNAse (Boehringer Mannheim, Mannheim, Germany) the cell suspension was gently triturated and washed with DMEM/HAM-F10 medium containing 10 % (v/v) FCS and antibiotic supplements. After passage through a 100-µm filter, myelin was removed by Percoll gradient centrifugation. Erythrocytes were lysed by a 15-min incubation on ice with 155 mM NH4Cl, 1 mM KHCO3, 0.2 % (w/v) BSA.\n(§2) Primary cultures of microglia, astrocytes and oligodendrocytes were set up in DMEM/HAM-F10 medium containing 10 % (v/v) FCS and antibiotic supplements. Recombinant human granulocyte-macrophage colony stimulating factor (rhGM-CSF, PeproTech Inc, USA) was added to microglial cultures every 3 days at a final concentration of […]. Cells were analyzed for TLR expression after 10-14 days following the start of the culture.\n(§3) Total cellular RNA was isolated from human glia cells using RNAZol™B (Campro scientific, Veenendaal, The Netherlands) and 2.5 µg RNA was reverse transcribed, using reverse transcription system (Promega, Madison, USA). PCR amplifications were performed on 1 µl copy DNA and 49 µl PCR mix (40 µl milliQ + 5 µl MgCl2 (see below for concentration) + 1 µl 10 mM dNTP mix + 1 µl 20 pmol/µl primer + 1 µl 20 pmol/µl anti sense primer and 0.2 µl taq polymerase). For β-actin, TLR1, TLR2, TLR3, TLR5, TLR6, TLR7 and TLR 9, 22 mM MgCl2 was used, for TLR4, 15 mM MgCl2 and for TLR8, 30 mM MgCl2. Amounts of TLR-encoding mRNA for each TLR were calculated by comparing the yield of each amplicon after 40 cycles to that for β-actin, and by determining the amounts of β-actin encoding mRNA in each sample by competitive quantitative RT-PCR as described previously (Bajramovic et al., 2000a; Bajramovic et al., 2000b).\n(§4) Amyloid-β-protein-derived peptide 1-42 (Bachem, Bubendorf, Switzerland) was dissolved in water at 1 mM and kept at 37°C for 1 week to allow for aggregation to occur. The aggregated peptide was added to cultured microglia at a final concentration of 5 µM and TLR expression was determined as described above after varying periods of incubation time. As another CNS-derived stimulant, human recombinant alpha B-crystallin (prepared by TNO Prevention and Health, Leiden) was used at a final concentration of 15 µg/mL."}, "TLR3": {"tested_on": "TLR3", "procedure": "as §1, §2, §3, §4"}, "other TLR": {"tested_on": "other TLR", "procedure": "as §1, §2, §3, §4"}, "[1]": {"conditions": "listed as Amyloid β protein-derived peptide 1-42"}, "[2]": {"conditions": "listed as amyloid β-protein derived peptide 1-42"}},
  "data": [
    {"substance": "amyloid β protein-derived peptide 1-42: Amyloid-β-protein-derived peptide 1-42 (Bachem), dissolved in water at 1 mM and kept at 37°C for 1 week to allow aggregation", "values": [
      {"measurement": "levels of TLR2-encoding mRNA", "setting": "TLR2", "value": "rapid mild inductive effect"},
      {"measurement": "levels of TLR2-encoding mRNA", "setting": "TLR2; [1]", "value": "elevated expression"},
      {"measurement": "levels of TLR2-encoding mRNA", "setting": "TLR2; [2]", "value": "strong effects"},
      {"measurement": "levels of TLR3-encoding mRNA", "setting": "TLR3", "value": "stronger inductive effects"},
      {"measurement": "levels of TLR3-encoding mRNA", "setting": "TLR3; [1]", "value": "elevated expression"},
      {"measurement": "levels of TLR3-encoding mRNA", "setting": "TLR3; [2]", "value": "strong effects"},
      {"measurement": "expression of mRNA encoding other TLR", "setting": "other TLR", "value": "not influenced"},
      {"measurement": "expression of mRNA encoding other TLR", "setting": "other TLR; [1]", "value": "not affecting"}
    ]}
  ]
}
